Test results taken from patent US12221649B2 (priority 2018, dated 2025).

Legend:
PSMA = PSMA (Homo sapiens, UniProt Q04609); experiment: Enzyme assay of probes and PSMA (fluorescence increase); type: biochemical; settings: 10 μM probe in TBS buffer, 37° C., 22 ng PSMA, Ex/Em=355/460 nm
Method: An enzyme assay was performed using the synthesized 4MU-tSoul-AE and PSMA.
An enzyme assay was performed using the synthesized 4MU-tSoul-GE and PSMA.
Here, FIG. 9(a) illustrates a reaction scheme of 4MU-tSoul-GE and PSMA. […] Ex/Em=355/460 nm. n=3.

carboxypeptidase B (CPB) = molecular target: T1, carboxypeptidase B (CPB) (Homo sapiens, UniProt P15086); type: biochemical; settings: for fluorescence change on incubation with CPB: 10 μM probe in PBS(-), Ex/Em=355/460 nm
T1 sequence (P15086 111-417): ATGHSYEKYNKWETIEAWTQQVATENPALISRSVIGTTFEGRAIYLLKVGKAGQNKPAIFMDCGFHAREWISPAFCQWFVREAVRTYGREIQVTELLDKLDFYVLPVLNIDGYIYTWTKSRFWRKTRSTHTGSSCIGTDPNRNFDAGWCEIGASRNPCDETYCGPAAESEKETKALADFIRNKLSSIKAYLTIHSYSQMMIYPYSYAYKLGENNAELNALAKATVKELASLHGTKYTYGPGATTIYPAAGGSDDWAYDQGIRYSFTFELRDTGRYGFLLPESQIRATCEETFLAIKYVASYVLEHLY
Method: (§1) An enzyme assay using the synthesized Compounds A, B was performed. As a result, the fluorescence of Compounds A and B was increased by incubation with carboxypeptidase A (CPA) and carboxypeptidase B (CPB) which were the respective target enzymes, and the increase in fluorescence was suppressed by addition of (S)-benzylsuccinic acid and MGTA which were the respective inhibitors.
FIG. 3(a) illustrates a reaction scheme of Compound B and CPB. In FIG. 3(b), 10 μM Compound B in PBS (-) was incubated at 37° C. with 5 ng CPB in the presence or absence of 100 μM inhibitor (MGTA) containing 0.1% DMSO as a co-solvent. Ex/Em=355/460 nm. n=4.
An enzyme assay using the synthesized Compound C and CPB was performed.
(§2) FIG. 4(a) illustrates a reaction scheme of Compound C and CPB. In FIG. 4(b), 10 μM Compound C in PBS (-) was incubated at 37° C. in the presence or absence of 5 ng CPB containing 0.1% DMSO as a co-solvent. Ex/Em=355/460 nm. n=4. […] 10 μM Compound A or Compound C in PBS (-) was incubated at 37° C. in the absence of CPB. Ex/Em=355/460 nm. n=4.
(§3) Next, reactivity with CPB and the stability in a buffer solution having a pH of 7.4 were examined. As a result, it became clear that while HMRef-tSoul-AR caused a fluorescence increase of 3320 times by reaction with CPB, HMRef-tSoul-AR was stable for at least about 1 hour in the absence of enzyme. The results are illustrated in FIG. 5.
(§4) FIG. 5(a) illustrates a reaction scheme of HMRef-tSoul-AR and CPB. FIG. 5(b) illustrates the fluorescence increase of 1 μM HMRef-tSoul-AR in PBS (-) incubated with 30 μg CPB containing 0.1% DMSO as a co-solvent. Incubation was performed at 25° C. The excitation wavelength was 498 nm. FIG. 5(c) illustrates an absorption change of 1 μM HMRef-tSoul-AR in PBS (-) at 25° C. for 50 minutes.

[1] = type: physicochemical; settings: for fluorescence change in the absence of enzyme (non-enzymatic degradation): 10 μM probe in PBS(-), pH 7.4, 37° C., no enzyme
Method: as §1, §2, §3, §4

CPB = molecular target: T2, CPB (Homo sapiens, UniProt P15086); experiment: Enzyme reaction rate parameters with CPB (fluorescence method, plate reader); type: biochemical; settings: CPB 5 ng, 37° C., PBS pH 7.4, 20 μL, apparent
T2 sequence (P15086 111-417): T1 sequence (P15086 111-417)
Method: (§5) In addition, an enzyme reaction rate parameter was calculated.
(§6) All experiments were performed at 37° C. in a total volume of 20 μL of phosphate buffered saline (pH 7.4) containing DMSO as a co-solvent. 5 ng of CPB or CPM was added. An enzyme reaction initial rate was calculated from a fluorescence change at 535 nm using a plate reader (n=3). The excitation wavelength was 485 nm.

carboxypeptidase M (CPM) = molecular target: T3, carboxypeptidase M (CPM) (Homo sapiens, UniProt P14384); experiment: Enzyme reaction rate parameters with CPM (fluorescence method, plate reader); type: biochemical
T3 sequence (P14384 18-423): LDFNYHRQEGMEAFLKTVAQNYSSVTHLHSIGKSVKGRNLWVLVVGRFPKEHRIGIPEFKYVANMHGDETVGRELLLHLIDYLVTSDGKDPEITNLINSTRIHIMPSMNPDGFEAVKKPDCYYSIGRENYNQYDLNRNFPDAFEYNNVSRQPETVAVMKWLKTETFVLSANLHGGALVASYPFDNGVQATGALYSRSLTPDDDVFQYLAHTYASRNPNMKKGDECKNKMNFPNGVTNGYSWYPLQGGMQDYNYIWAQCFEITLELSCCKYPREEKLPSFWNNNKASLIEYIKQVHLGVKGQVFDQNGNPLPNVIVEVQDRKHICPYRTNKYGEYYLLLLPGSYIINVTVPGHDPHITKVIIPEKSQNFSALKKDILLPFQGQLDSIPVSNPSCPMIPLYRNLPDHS
Method: as §5, §6

[2] = test system: MDCK cells expressing CPM; experiment: Live imaging of CPM activity in MDCK cells; type: cell-based
Method: Live imaging of the carboxypeptidase activity in living cells was performed using HMRef-tSoul-AR synthesized above. […] Since it has been reported that CPM is expressed as an active form on a cell membrane unlike CPB, addition of trypsin or the like is unnecessary.
Here, FIGS. 6(a) and 6(b) illustrate fluorescence images of the MDCK cells containing 10 μM HMRef-tSoul-AR in HBSS in the presence (a) or absence (b) of 10 μM MGTA. Ex/Em=488/500-550 nm laser output 5%, PMT 600 V. 10 μM Hoechst 33342 was co-incubated for focal plane correction. For imaging of a Hoechst signal, Ex/Em=405/430-460 nm. Laser output 3%, PMT 1000 V, SP8.
Here, FIG. 7 illustrates results of UPLC analysis of a medium of the MDCK cells incubated with 20 μM HMRef-tSoul-AR in the presence or absence of 10 μM MGTA. The MDCK cells were incubated with 20 μM HMRef-tSoul-AR in HBSS at 37° C. for 20 hours in the presence or absence of 10 μM MGTA. Elution was performed with a linear gradient of C/D=95/5 to 5/95 in 4 minutes and detected at 254 nm.

[3] = test system: basic carboxypeptidase activity in breast cancer tissue; experiment: Fluorescence imaging of clinical specimens derived from breast cancer patients; set-up: species or system human
Method: Four specimens (IDC: invasive ductal carcinoma, 3 cases; DCIS: ductal carcinoma in situ, 1 case) derived from breast cancer patients were subjected to fluorescence imaging by applying HMRef-tSoul-AR to a tumor site and a normal site by the following procedure (FIG. 10).
HMRef-tSoul-AR was dissolved in PBS so as to have a final concentration of 50 μM (containing 1% DMSO), and applied to clinical specimens from breast cancer patients in the presence and absence of 100 μM MGTA. A fluorescence image was captured on Maestro in vivo imaging system (PerkinElmer, Inc., MA, USA), a 455 nm (435-480 nm) band pass filter was used as an excitation light filter, and a 490 nm long pass filter was used as a fluorescence filter.
When an increase was observed, in order to examine whether or not the increase was derived from basic carboxypeptidase activity, a group to which the inhibitor MGTA was added was also examined at the same time.

carboxypeptidase A (CPA) = molecular target: T4, carboxypeptidase A (CPA) (Homo sapiens, UniProt P15085); experiment: Enzyme assay of Compound A and CPA (fluorescence increase); type: biochemical; settings: 37° C.
T4 sequence (P15085 111-419): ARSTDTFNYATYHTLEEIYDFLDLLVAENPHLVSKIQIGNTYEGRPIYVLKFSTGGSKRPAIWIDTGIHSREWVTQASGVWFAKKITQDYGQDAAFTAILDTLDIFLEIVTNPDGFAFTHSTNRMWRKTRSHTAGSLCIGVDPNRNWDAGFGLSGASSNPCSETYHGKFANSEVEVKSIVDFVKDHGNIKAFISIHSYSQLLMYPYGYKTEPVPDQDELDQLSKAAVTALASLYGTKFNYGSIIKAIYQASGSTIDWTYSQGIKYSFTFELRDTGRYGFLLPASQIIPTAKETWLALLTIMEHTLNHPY
Method: An enzyme assay using the synthesized Compounds A, B was performed.
(§7) FIG. 2(a) illustrates a reaction scheme of Compound A and CPA. In FIG. 2(b), 10 μM Compound A in PBS (-) was incubated at 37° C. with 5 ng CPA activated by 1.5 μg trypsin in the presence or absence of 100 μM inhibitor ((S)-benzylsuccinic acid) containing 0.1% DMSO as a co-solvent. Ex/Em=355/460 nm. n=4. (In FIG. 2, Try represents trypsin, and SBSA represents (S)-benzylsuccinic acid.)

trypsin = molecular target: T5, trypsin (Bos taurus, UniProt P00760); experiment: Compound A with only trypsin added (control condition of the CPA assay); type: biochemical; settings: 10 μM Compound A, no CPA
T5 construct: gene PRSS1
T5 sequence (P00760 24-246): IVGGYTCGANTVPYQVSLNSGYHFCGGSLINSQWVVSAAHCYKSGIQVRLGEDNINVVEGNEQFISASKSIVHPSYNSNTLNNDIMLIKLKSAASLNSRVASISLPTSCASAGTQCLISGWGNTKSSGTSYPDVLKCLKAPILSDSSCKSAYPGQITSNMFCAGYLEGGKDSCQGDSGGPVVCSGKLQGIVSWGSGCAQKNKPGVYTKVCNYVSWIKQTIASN
Method: as §1, §7

[4] = CPM 5 ng, 37° C., PBS pH 7.4, 20 μL, apparent

Chain of PSMA (Q04609 whole entry): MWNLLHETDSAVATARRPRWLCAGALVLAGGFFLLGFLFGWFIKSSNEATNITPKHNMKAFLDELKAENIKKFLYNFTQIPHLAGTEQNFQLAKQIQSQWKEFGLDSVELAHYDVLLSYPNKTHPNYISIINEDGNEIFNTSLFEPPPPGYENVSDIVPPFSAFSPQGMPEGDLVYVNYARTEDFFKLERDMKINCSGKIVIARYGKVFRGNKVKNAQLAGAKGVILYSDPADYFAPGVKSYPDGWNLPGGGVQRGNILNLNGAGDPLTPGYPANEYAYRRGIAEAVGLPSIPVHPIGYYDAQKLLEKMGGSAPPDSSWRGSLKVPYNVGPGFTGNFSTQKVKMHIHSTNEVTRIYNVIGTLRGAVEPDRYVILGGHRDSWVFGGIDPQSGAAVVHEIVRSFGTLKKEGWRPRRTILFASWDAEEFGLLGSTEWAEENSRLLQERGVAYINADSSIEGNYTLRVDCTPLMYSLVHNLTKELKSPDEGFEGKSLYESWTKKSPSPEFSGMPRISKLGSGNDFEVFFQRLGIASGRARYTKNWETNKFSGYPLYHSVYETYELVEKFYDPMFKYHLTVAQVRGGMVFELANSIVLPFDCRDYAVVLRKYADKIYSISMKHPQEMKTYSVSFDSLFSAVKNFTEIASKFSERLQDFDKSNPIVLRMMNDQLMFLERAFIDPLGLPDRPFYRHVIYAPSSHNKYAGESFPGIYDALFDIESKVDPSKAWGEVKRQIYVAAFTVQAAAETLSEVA

Cc1cc(=O)oc2cc(OP(=O)(NCC(=O)N[C@@H](CCC(=O)O)C(=O)O)C(C)(C)C)ccc12 (stereo partly shown) [Compound 4MU-tSoul-GE]
fluorescence change on incubation with PSMA (PSMA): the increase in fluorescence was observed

Cc1cc(=O)oc2cc(OP(=O)(N[C@@H](C)C(=O)N[C@@H](CCCNC(=N)N)C(=O)O)C(C)(C)C)ccc12 (stereo partly shown) [Compound C]
fluorescence change on incubation with CPB (carboxypeptidase B (CPB); 37° C., 5 ng CPB): served as a substrate for CPB and showed the increase in fluorescence | fluorescence change in the absence of enzyme (non-enzymatic degradation) [1]: no increase in fluorescence was observed

C[C@H](NP(=O)(Oc1ccc2c(c1)Oc1cc(NCC(F)(F)F)ccc1C21OCc2ccccc21)C(C)(C)C)C(=O)N[C@@H](CCCNC(=N)N)C(=O)O (stereo partly shown) [HMRef-tSoul-AR]
fluorescence increase by reaction with CPB (carboxypeptidase B (CPB); 1 μM probe in PBS(-), 30 μg CPB, 25° C., excitation 498 nm): 3320 times | time stable in the absence of enzyme ([1]; 1 μM probe, buffer pH 7.4, 25° C., absorption change): at least 1 hour | Km (CPB): 50 µM | Vmax (CPB): 1.2e-08 M/s | kcat (CPB): 1.7 s⁻¹ | substrate recognition by CPM (carboxypeptidase M (CPM)): served as a substrate | Km (carboxypeptidase M (CPM); [4]): 61 µM | Vmax (carboxypeptidase M (CPM); [4]): 4e-08 M/s | kcat (carboxypeptidase M (CPM); [4]): 1.0 s⁻¹ | fluorescence from MDCK cells over time ([2]; 10 μM probe in HBSS, Ex/Em=488/500-550 nm): an increase in fluorescence over time from the MDCK cells was observed | generation of HMRef in external liquid of MDCK cells (UPLC) ([2]; 20 μM probe, HBSS, 37° C., 20 hours): HMRef was certainly generated | fluorescence from tumor tissue as compared with normal tissue ([3]; 50 μM probe in PBS (1% DMSO), four breast cancer specimens): remarkable increase in fluorescence

CCOP(=O)(N[C@@H](C)C(=O)N[C@@H](CCCNC(=N)N)C(=O)O)Oc1ccc2c(C)cc(=O)oc2c1 (stereo partly shown) [Compound B]
fluorescence change on incubation with CPB (carboxypeptidase B (CPB); 37° C., 5 ng CPB): increased | fluorescence change in the absence of enzyme (non-enzymatic degradation) [1]: gradually increased even slightly

NC(N)=NCCSCC(CS)C(=O)O (stereo not shown) [MGTA, reference compound]
effect of inhibitor on the increase in fluorescence of Compound B with CPB (carboxypeptidase B (CPB); 100 μM inhibitor, 10 μM Compound B, 5 ng CPB, 37° C.): suppressed | effect of inhibitor on the increase in fluorescence of HMRef-tSoul-AR in MDCK cells ([2]; 10 μM inhibitor, 10 μM HMRef-tSoul-AR in HBSS): completely suppressed | effect of inhibitor on the increase in fluorescence of HMRef-tSoul-AR in breast cancer specimens ([3]; 100 μM inhibitor, 50 μM HMRef-tSoul-AR): suppressed

O=C(O)C[C@H](Cc1ccccc1)C(=O)O [(S)-benzylsuccinic acid, reference compound]
effect of inhibitor on the increase in fluorescence of Compound A with CPA (carboxypeptidase A (CPA); 100 μM inhibitor, 10 μM Compound A, 5 ng CPA): suppressed

Cc1cc(=O)oc2cc(OP(=O)(N[C@@H](C)C(=O)N[C@@H](CCC(=O)O)C(=O)O)C(C)(C)C)ccc12 (stereo partly shown) [Compound 4MU-tSoul-AE]
fluorescence change on incubation with PSMA (PSMA): the increase in fluorescence was not observed

CCOP(=O)(N[C@@H](C)C(=O)N[C@@H](Cc1ccccc1)C(=O)O)Oc1ccc2c(C)cc(=O)oc2c1 (stereo partly shown) [Compound A]
fluorescence change on incubation with CPA (carboxypeptidase A (CPA); 10 μM probe in PBS(-), 5 ng CPA activated by 1.5 μg trypsin, Ex/Em=355/460 nm): increased | fluorescence change with only trypsin added (trypsin): a remarkable increase in fluorescence was not observed | fluorescence change in the absence of enzyme (non-enzymatic degradation) [1]: gradually increased even slightly
